Measurements as given in patent US9820981B2, “Treatment of retinopathy of prematurity (ROP)” (The Cleveland Clinic Foundation, priority 2013, dated 2017).

Experiments:
[1] = system: EPO; assay: Serum EPO ELISA; assay type: in vivo; details: P8 mouse pups
Method: (§1) Wild-type (WT) and HIF-1α knock-out (KO) P8 mouse pups were injected with 10 μg/g FG-4592 and, following indicated periods of time, the pups were anesthetized by ketamine/xylazine, blood was drawn using heparinized 27-gauge needle and syringe. Serum was diluted 1:10 (EPO), 1:5 (VEGF) or 1:100 (ANGPTL-3) with sample diluent provided by the manufacturer (R&D Systems, Minneapolis, Minn.). Spectrophotometric measurements of EPO, VEGF, and ANGPTL-3 quantities were obtained according to the manufacturer's instructions.

[2] = system: Hepatic EPO, VEGFA and ANGPTL3 mRNA; assay: Reverse transcription and quantitative PCR of hepatic mRNA; assay type: in vivo, mouse; details: data not shown
Method: Tissue from liver, kidney, brain and retina were placed into 1 mL of RNAlater reagent (Qiagen, Germantown, Md.) and stored at −80° C. Total RNA was extracted using RNeasy kit (Qiagen) and measured using NanoDrop and standard spectrophotometric parameters. One μg of total RNA from each sample was retrotranscripted to cDNA using QuantiTect Reverse Transcription Kit (Qiagen). One μl of cDNA samples was used as template for amplification reactions carried out with the QuantiTect SYBR Green PCR kit (Qiagen) following the manufacturer's instructions. PCR amplifications were performed in a 7900HT Fast Real-Time PCR system (Applied Biosystems, Foster City, Calif.) and quantitative PCR data analysis was performed with RQ Managed software (Applied Biosystems).

[3] = system: oxygen-induced retinopathy (OIR); assay: Oxygen-induced retinopathy (OIR) mouse model, retinal flatmounts; assay type: in vivo; details: for reduction of capillary dropout in retinal flatmounts (percent avascular area of total retinal area): P17, each at optimal dose (10 μg/g FG-4592, 200 μg/g DMOG) i.p. at P6, P8, P10
Method: The PBS-treated pup has an ischemic, posterior retina compared to the FG-4592-treated pup. Pups were treated with intraperitoneal injection of 10 μg/g body weight FG-4592 at P6, P8, and P10 while in 75% hyperoxia. At P12, pups were removed to room air with their nursing mothers and sacrificed at P17. Eyes were removed and fixed for 15 minutes in fresh 4% paraformaldehyde (PFA) before isolating whole retina, permeabilizing and lectin staining, then flat mounting for fluorescence microscopy.
An automated computer program (ImagePro version 7.0) measures capillary dropout and neovascular tufting seen in 3B.
The mouse model of ROP used in this study is based on a well-established protocol by Smith et al. (L. E. Smith, E. Wesolowski, A. McLellan, S. K. Kostyk, R. D'Amato, R. Sullivan, and P. A. D'Amore. Oxygen-induced retinopathy in the mouse. Investigative ophthalmology & visual science. 35:101-111 (1994)) that involves exposing pups and their nursing mothers to 5 days of hyperoxia (75% oxygen) during P7 through P12 in the wild type C57BL6 (WT) pups. A Plexiglas incubator with an oxygen sensor and feedback system ProOx (Biospherix, Lacona, N.Y.) was used to ensure continuous hyperoxia. Animals were injected intraperitoneally with FG-4592 (10 μg/g), DMOG (200 μg/g) or control PBS in the equivalent volume at P6, P8, and P10. […] Flatmount preparation and lectin (GS-IB4-Alexa568, Life Technologies, Grand Island, N.Y.) staining was performed essentially as described elsewhere (K. M. Connor, N. M. Krah, R. J. Dennison, C. M. Aderman, J. Chen, K. I. Guerin, P. Sapieha, A. Stahl, K. L. Willett, and L. E. Smith. Quantification of oxygen-induced retinopathy in the mouse: a model of vessel loss, vessel regrowth and pathological angiogenesis. Nat Protoc. 4:1565-1573 (2009); A. Stahl, K. M. Connor, P. Sapieha, K. L. Willett, N. M. Krah, R. J. Dennison, J. Chen, K. I. Guerin, and L. E. Smith. Computer-aided quantification of retinal neovascularization. Angiogenesis. 12:297-301 (2009)). Retinas were dissected using four radial cuts, and flatmounted onto glass slides with Vectashield (Vector Labs, Burlingame, Calif.). All animal procedures were performed in accordance with the Cleveland Clinic Institutional Animal Care and Use Committee.
For quantitative analysis of avascular area, vascular tortuosity, and tufting, retinal images were batch processed using a customized macro and algorithms generated in Image-Pro Plus 7.0 (Media Cybernetics, Silver Spring, Md.) as previously described (J. E. Sears, G. Hoppe, Q. Ebrahem, and B. Anand-Apte. Prolyl hydroxylase inhibition during hyperoxia prevents oxygen-induced retinopathy. Proceedings of the National Academy of Sciences of the United States of America. 105:19898-19903 (2008)).
FG-4592 was solubilized as a stock solution of […] in DMSO, which was then diluted 50 times in PBS to a concentration of 1 μg/microliter to facilitate a final dose of 10 μg/g body weight of each mouse pup. Three injections were administered during the hyperoxic phase of oxygen-induced retinopathy (OIR) at 48-hour intervals.

[4] = system: serum erythropoietin (Epo), a HIF-regulated gene product; assay: Immunoblot of serum erythropoietin (Epo) response after single intraperitoneal injection; assay type: in vivo; details: P8 mouse pups, serum 6 hours after a single intraperitoneal injection
[5] = system: HIF-1α; assay: Western blot of HIF-1α protein in organ lysates; assay type: in vivo; details: mouse pups, versus PBS
Method: Mice were sacrificed by ketamine/xylazine overdose, organs collected and placed in RIPA buffer (200 μL per 50 mg of tissue, pH 7.0) containing protease inhibitors Complete (Roche, Indianapolis, Ind.), disrupted using a tight fitting microtube pestle, and centrifuged to remove particulate matter. A Pierce BCA protein assay (Thermo Scientific, Rockford, Ill.) was used to measure protein concentrations. Lysates were subjected to 4-20% SDS-PAGE and electro-transferred to PVDF membranes for immunoblotting. Membranes were blocked with 5% nonfat dried milk in Tris-buffered saline and 0.1% Tween-20, then probed with anti-HIF-1α, antibody (Cayman Chemical, Ann Arbor, Mich.) overnight. After washing and secondary antibody hybridization, membranes were exposed by chemiluminescence (Western Lighting, PerkinElmer, Waltham, Mass.).
FIG. 5A is images of Western blots detecting HIF-1α protein in organ lysates derived from pups treated with PBS or FG-4592, and FIG. 5B is a graph of integrated optical density of the immunoblots shown in FIG. 5A.

[6] = system: angiopoietin-like protein 3 (ANGPTL-3); assay: Serum ANGPTL-3 ELISA; assay type: in vivo; details: P8 mouse pups
Method: as §1

[7] = system: VEGF; assay: Serum VEGF ELISA; assay type: in vivo; details: P8 mouse pups
Method: as §1

[8] = system: HIF prolyl hydroxylase (PHD); assay: In vivo localization of PHD inhibition in luc-ODD mouse (luminescence imaging, luciferase activity in organ lysates); details: for localization of luminescence, whole animal imaging: luc-ODD mouse
Method: Gt(ROSA)26Sor^tml(Luc)Kael (luc-ODD) mice were obtained from the Jackson Laboratory (Bar Harbor, Me.). Pups were given i.p. injections of 10 μg/g FG-4592 at indicated periods of time prior to live imaging. Mice were injected with mixture of 100 mg/kg ketamine, 10 mg/kg xylazine and 50 mg/kg luciferin and placed in a light-tight chamber connected to a supercooled, charge-coupled camera. Photons were collected for 15 seconds using IVI 100 Imaging System (PerkinElmer, Waltham, Mass.).
The luc-ODD mouse has a transgene comprised of luciferase fused to the ODD and, therefore, serves as a reporter gene in vivo of where hydroxylation of the ODD is inhibited, observed as luminescence in tissue lysates and whole animal imaging.
Quantitation of the effect shown in FIG. 4A supports the specificity of this effect in tissue lysates.

[9] = murine OIR model, 10 eyes each group

For Cc1nc(C(=O)NCC(=O)O)c(O)c2ccc(Oc3ccccc3)cc12 [FG-4592], the “circulating (serum) levels of EPO” value ([1]; 10 μg/g FG-4592 i.p.) was “marked increase”, the “time of peak EPO production after treatment” value ([1]; time-course study) was 3 h and the “Hepatic EPO, VEGFA and ANGPTL3 mRNA levels and kinetics” value [2] was “mirrored their corresponding serum protein concentrations”. For the same molecule, the “preservation of retinal vessels in retinal flatmounts” value ([3]; 10 μg/g i.p. at P6, P8, P10 in 75% hyperoxia, sacrificed P17, versus PBS) was “preservation of retinal vessels”, the “benefit in direct comparison with DMOG” value ([3]; OIR model, 10 μg/g FG-4592 versus 200 μg/g DMOG) was “at least the same benefit as DMOG, with a trend to superiority of FG-4592” and the “ischemic, hypoxic retina (isolectin and Hypoxyprobe staining)” value ([3]; P17, versus sham PBS injection) was “decrease in ischemic, hypoxic retina at P17”. The “reduction of capillary dropout in retinal flatmounts (percent avascular area of total retinal area)” value ([3]; versus PBS) was 3 fold, the “rate of decrease of central avascular region (retinovascular repair)” value ([3]; flatmounts at P12, P15, P17, treated versus PBS) was “identical rates of decrease of this region in treated and untreated animals” and the “inhibition of capillary drop-out compared with DMOG” value [3, 9] was “inhibits capillary drop-out better than DMOG”. The “inhibition of neovascularization subsequent to capillary drop-out compared with DMOG” value [3, 9] was “inhibits neovascularization subsequent to capillary drop-out better than DMOG”, the “potency relative to DMOG, quantification of serum Epo immunoblot” value [4] was “approximately fifteen times more potent than DMOG” and the “organ specific stabilization of HIF-1α protein (integrated optical density)” value [5] was “maximal increase in HIF-1α in liver and kidney lysates”. The “elevation of ANGPTL-3 in serum” value ([6]; 10 μg/g FG-4592 i.p.) was 6 fold, the “time course of ANGPTL-3 induction” value ([6]; time-course study) was “sustained induction, even 24 hours after FG-4592 treatment” and the “serum levels of VEGF” value ([7]; 10 μg/g FG-4592 i.p.) was “moderate but statistically significant increase”. The “time of peak VEGF levels after treatment” value ([7]; time-course study) was 6 h, the “organ specificity, luciferase activity (RLU/mg tissue protein) in organ lysates” value ([8]; luc-ODD mice, s.c. or i.p. injection, versus PBS) was “specificity of FG-4592 for liver and kidney” and the “localization of luminescence, whole animal imaging” value ([8]; i.p. injection) was “liver- and kidney-specific luminescence”. For the same molecule, the “localization of luminescence, whole animal imaging” value ([8]; s.c. injection) was “liver- and kidney-specific luminescence” and the “duration of HIF PHD inhibition” value ([8]; single intraperitoneal injection, time course in kidney and lung) was “at least 24 hours”.

In the case of COC(=O)CNC(=O)C(=O)OC [DMOG, dimethyl oxaloylglycine], the “reduction of capillary dropout in retinal flatmounts (percent avascular area of total retinal area)” value ([3]; versus PBS) is reported as 3 fold.
